Laboratory results as given in patent publication US7371813B2, “Method for use of IGF-binding protein for selective sensitization of target cells in vivo” (Bioexpertise LLC, priority 2000, dated 2008).
Marks after values point to notes of the source that are not given here.

Columns and labels:
[1] = test system: 16C mammary adenocarcinoma; assay: 16C mammary adenocarcinoma SC tumor implants in C3H mice, tumor growth; type: in vivo; settings: for Days Delay in tumor growth: endpoint of 1500 mg tumor weight, 16C tumors, C3H mice
Experimental: Female C3H mice (8-11 animals per group) received early SC implants of 16C mammary adenocarcinoma tumor fragments (near 100% “take”) and were treated with vehicle, [N109D]-IGFBP-3 (4 mg/kg/day SC ×21), 5-FU (10 mg/kg/day IP ×5), adriamycin (2 mg/kg/dose IV on day 1 and day 8 post-implant), or the indicated combinations. Tumors were measured twice weekly. Animals were sacrificed at Day 21. The doses of doxorubicin and 5-fluorouracil used in this experiment were chosen to be marginally effective, based on previous experience with these chemical agents in this model. […] The results are shown graphically in FIG. 2.

[2] = test system: 1,176 mouse gene sequences; assay: Gene array analysis (Atlas 1.2k-I mouse gene arrays) of 16C tumor tissue; type: in vivo
Experimental: (§1) In order to gain further insights into the mechanism of action of exogenously added IGFBP-3 in these mouse models, tumor tissues from the groups treated with vehicle, doxorubicin, or doxorubicin plus IGFBP-3, were further analyzed using gene array technology. RNA was extracted from tumor tissue. cDNA was prepared, labelled and used to probe Atlas 1.2k-I mouse gene arrays (Clontech Laboratories Inc., Palo Alto, Calif.). These arrays contain 1,176 mouse gene sequences.

RXR-alpha = RXR-alpha levels in 16C tumor tissue (gene array); type: in vivo, mouse; settings: 16C tumors from treated animals
Experimental: as §1

MDA-MB-231 tumors = assay: MDA-MB-231 mammary tumors implanted SC in nude mice, tumor growth; type: in vivo; settings: for Median tumor volume, day 15: Day 15 post-implant (treatment start); for Median tumor volume, day 15 / Days Delay in tumor growth: MDA-MB-231, nude mice; for Median tumor volume, day 19: Day 19 post-implant; for Median tumor volume, day 22: Day 22 post-implant; for Median tumor volume, day 26: Day 26 post-implant; for Median tumor volume, day 29: Day 29 post-implant; for Median tumor volume, day 33: Day 33 post-implant; for Tumor growth, difference from control: statistical comparison with the control group; for Days Delay in tumor growth: endpoint of 3× doubling of tumor weight
Experimental: MDA-MB-231 tumors were implanted in nude mice. Ten animals (NCr-nu) were allocated to each group. The tumors were implanted SC as trocar fragments and allowed to increase in size to approximately 170 mg before treatment began on Day 15 post-implant. The treatment regimen for [N109D]-IGFBP-3 was 4.0 mg/kg/dose, daily for 21 days, SC beginning on Day 15. The treatment regimen for Taxol was 5.0 mg/kg/day, daily for five days, IV. The treatment regimen for Cisplatin was 4.0 mg/kg/dose, administered every fourth day for three treatments, IP. Treatment regimens for TAXOL® and Cisplatin began on Day 18. Tumor measurements were performed daily.

tumor growth = assay: Systemic IGFBP-3 alone in animal models of cancer, tumor growth; type: in vivo; settings: 4 mg/kg for 21 days, more than one animal model of cancer
Experimental: This was surprising because it was believed that IGFBP-3 alone could cause the death of some tumor cells. The dose chosen is likely to be close to the maximum practicable dose that would be systemically delivered in a human clinical setting. The maximum practicable dose is determined by the cost, pharmacokinetics, toxicology, solubility of the formulation, route of administration, and other practical considerations.

Row | Molecule | Days Delay in tumor growth [1] | Median tumor volume, day 15 (MDA-MB-231 tumors) [milligrams] | Median tumor volume, day 19 (MDA-MB-231 tumors) [milligrams] | Median tumor volume, day 22 (MDA-MB-231 tumors) [milligrams] | Median tumor volume, day 26 (MDA-MB-231 tumors) [milligrams] | Median tumor volume, day 29 (MDA-MB-231 tumors) [milligrams] | Median tumor volume, day 33 (MDA-MB-231 tumors) [milligrams] | Tumor growth, difference from control (MDA-MB-231 tumors) | Days Delay in tumor growth (MDA-MB-231 tumors) | further results
1 | O=c1[nH]cc(F)c(=O)[nH]1 [5-FLUOROURACIL, 5-fluorouracil] | +1.9 days | – | – | – | – | – | – | – | – | –
2 | COc1cccc2c1C(=O)c1c(O)c3c(c(O)c1C2=O)C[C@@](O)(C(=O)CO)C[C@@H]3O[C@H]1C[C@H](N)[C@H](O)[C@H](C)O1 [ADRIAMYCIN ®, doxorubicin] | +2.5* days | – | – | – | – | – | – | – | – | Number of down-regulated genes ([2]; among the differentially expressed genes): 16 genes; Number of differentially expressed genes ([2]; of 1,176 gene sequences): 26 genes; Share of genes differentially expressed ([2]; of 1,176 gene sequences): 2%; Inhibition of RXR-alpha levels in tumors (RXR-alpha): not
3 | N.N.[Cl][Pt][Cl] [CISPLATIN, cisplatin] | – | 171 ± 33 | 368 ± 124 | 446 ± 175 | 563 ± 214 | 675 ± 220 | 922 ± 299 | significantly different from control | – | –
4 | CC(=O)O[C@H]1C(=O)[C@@]2(C)[C@H]([C@H](OC(=O)c3ccccc3)[C@]3(O)C[C@H](OC(=O)[C@H](O)[C@@H](NC(=O)c4ccccc4)c4ccccc4)C(C)=C1C3(C)C)[C@]1(OC(C)=O)CO[C@@H]1C[C@@H]2O [TAXOL ®, paclitaxel] | – | 153 ± 32 | 327 ± 131 | 384 ± 337 | 512 ± 489 | 648 ± 538 | 900 ± 1067 | significantly different from control | +3.5 days | –
5 | IGFBP-3: insulin-like growth factor binding protein 3; in Table 2 the group received [N109D]-IGFBP-3 | – | 161 ± 35 | 367.5 ± 244 | 565 ± 510 | 818.5 ± 750 | 1089 ± 851 | 1936 ± 1825 | – | – | Slowing of tumor growth by IGFBP-3 alone (tumor growth): completely ineffective
6 | [N109D]-IGFBP-3: derivative of IGFBP-3 that has an amino acid sequence alteration at position 109 of the mature sequence | -0.2 days | – | – | – | – | – | – | not significantly different from control | -2.2 days | Effect on tumor growth on its own ([1]; 4 mg/kg/day SC ×21): no measurable effects; Potentiation of the effects of co-administered doxorubicin and 5-fluorouracil ([1]; 4 mg/kg/day SC ×21 with marginally effective doses of the agents): significantly (p<0.01) potentiated the effects of both agents
